Earlier results, collected in patent US20070021304A1, “Non-salt glyphosate herbicide composition and method for preparing the same” (Sinon Corporation, priority 2005, published 2007).

Conditions: pH 1.9, 20° C.

SMILES: O=C(O)CNCP(=O)(O)O [Glyphosate]
- water solubility: approximately 10.5 g/L
